Source: patent US10413505B1, “Pharmaceutical compositions and methods of using the same” (priority 2017, dated 2019)

Assay: Example 2 plasma pharmacokinetics, normal renal function vs severe renal impairment
Conditions: for AUC(0-t) / AUC(0-inf) / Cmax / Tmax / half-life: both, human, 160 mg
[1] = normal renal function, single intranasal 160 mg cocaine HCl, plasma
[2] = severe renal impairment vs normal renal function, ANOVA
[3] = severe renal impairment, single intranasal 160 mg cocaine HCl, plasma

COC(=O)[C@H]1[C@@H](OC(=O)c2ccccc2)C[C@@H]2CC[C@H]1N2C [Cocaine, cocaine, reference compound]
CL/F (Geometric Least Squares Mean, ANOVA) (Impaired renal function (severe), single intranasal 160 mg cocaine HCl): 1333 L/h
AUC(0-t) (plasma, inhaled or intranasal, AUC0→t (Geometric mean), normal renal function, single intranasal 160 mg cocaine HCl): 78.7 ng·h/mL
AUC(0-t) (plasma, inhaled or intranasal, AUC0→t (Geometric mean), severe renal impairment, single intranasal 160 mg cocaine HCl): 106 ng·h/mL
AUC(0-t) (plasma, inhaled or intranasal, AUC0→t (Mean), normal renal function, single intranasal 160 mg cocaine HCl): 83.5 ng·h/mL
AUC(0-t) (plasma, inhaled or intranasal, AUC0→t (Mean), severe renal impairment, single intranasal 160 mg cocaine HCl): 119 ng·h/mL
AUC(0-t) (plasma, inhaled or intranasal, AUC0→t (Median), normal renal function, single intranasal 160 mg cocaine HCl): 91.6 ng·h/mL
AUC(0-t) (plasma, inhaled or intranasal, AUC0→t (Median), severe renal impairment, single intranasal 160 mg cocaine HCl): 109 ng·h/mL
AUC(0-inf) (plasma, inhaled or intranasal, AUC0→∞ (Geometric mean), normal renal function, single intranasal 160 mg cocaine HCl): 80.5 ng·h/mL
AUC(0-inf) (plasma, inhaled or intranasal, AUC0→∞ (Geometric mean), severe renal impairment, single intranasal 160 mg cocaine HCl): 107 ng·h/mL
AUC(0-inf) (plasma, inhaled or intranasal, AUC0→∞ (Mean), normal renal function, single intranasal 160 mg cocaine HCl): 85 ng·h/mL
AUC(0-inf) (plasma, inhaled or intranasal, AUC0→∞ (Mean), severe renal impairment, single intranasal 160 mg cocaine HCl): 120 ng·h/mL
AUC(0-inf) (plasma, inhaled or intranasal, AUC0→∞ (Median), normal renal function, single intranasal 160 mg cocaine HCl): 92.9 ng·h/mL
AUC(0-inf) (plasma, inhaled or intranasal, AUC0→∞ (Median), severe renal impairment, single intranasal 160 mg cocaine HCl): 110 ng·h/mL
AUC(0-t) (plasma, inhaled or intranasal, AUClast (Geometric Least Squares Mean, ANOVA), Impaired renal function (severe), single intranasal 160 mg cocaine HCl): 106 ng·h/mL
AUC(0-t) (plasma, inhaled or intranasal, AUClast (Geometric Least Squares Mean, ANOVA), Normal renal function, single intranasal 160 mg cocaine HCl): 78.7 ng·h/mL
Cmax (plasma, inhaled or intranasal, Cmax (Geometric Least Squares Mean, ANOVA), Impaired renal function (severe), single intranasal 160 mg cocaine HCl): 47.9 ng/mL
Cmax (plasma, inhaled or intranasal, Cmax (Geometric Least Squares Mean, ANOVA), Normal renal function, single intranasal 160 mg cocaine HCl): 35.9 ng/mL
Cmax (plasma, inhaled or intranasal, Cmax (Geometric mean), normal renal function, single intranasal 160 mg cocaine HCl): 35.9 ng/mL
Cmax (plasma, inhaled or intranasal, Cmax (Geometric mean), severe renal impairment, single intranasal 160 mg cocaine HCl): 47.9 ng/mL
Cmax (plasma, inhaled or intranasal, Cmax (Mean), normal renal function, single intranasal 160 mg cocaine HCl): 38.1 ng/mL
Cmax (plasma, inhaled or intranasal, Cmax (Mean), severe renal impairment, single intranasal 160 mg cocaine HCl): 57.8 ng/mL
Cmax (plasma, inhaled or intranasal, Cmax (Median), normal renal function, single intranasal 160 mg cocaine HCl): 37 ng/mL
Cmax (plasma, inhaled or intranasal, Cmax (Median), severe renal impairment, single intranasal 160 mg cocaine HCl): 55.4 ng/mL
Cmax (plasma, inhaled or intranasal, Cmax, range observed, renally impaired patients, soaked absorbent articles on nasal mucous membranes): 21.9 to 93.7 ng/mL
Tmax (plasma, inhaled or intranasal, Tmax (Geometric mean), normal renal function, single intranasal 160 mg cocaine HCl): 0.518 h
Tmax (plasma, inhaled or intranasal, Tmax (Geometric mean), severe renal impairment, single intranasal 160 mg cocaine HCl): 0.429 h
Tmax (plasma, inhaled or intranasal, Tmax (Mean), normal renal function, single intranasal 160 mg cocaine HCl): 0.583 h
Tmax (plasma, inhaled or intranasal, Tmax (Mean), severe renal impairment, single intranasal 160 mg cocaine HCl): 0.448 h
Tmax (plasma, inhaled or intranasal, Tmax (Median), severe renal impairment, single intranasal 160 mg cocaine HCl): 0.417 h
Tmax (plasma, inhaled or intranasal, median Tmax, normal renal function, single intranasal 160 mg cocaine HCl): 0.5 h
half-life (plasma, inhaled or intranasal, t1/2 (Geometric mean), normal renal function, single intranasal 160 mg cocaine HCl): 4.12 h
half-life (plasma, inhaled or intranasal, t1/2 (Geometric mean), severe renal impairment, single intranasal 160 mg cocaine HCl): 5.42 h
half-life (plasma, inhaled or intranasal, t1/2 (Mean), normal renal function, single intranasal 160 mg cocaine HCl): 5 h
half-life (plasma, inhaled or intranasal, t1/2 (Mean), severe renal impairment, single intranasal 160 mg cocaine HCl): 6.02 h
half-life (plasma, inhaled or intranasal, t1/2 (Median), normal renal function, single intranasal 160 mg cocaine HCl): 3.89 h
half-life (plasma, inhaled or intranasal, t1/2 (Median), severe renal impairment, single intranasal 160 mg cocaine HCl): 6.39 h
AUC(0-inf) (plasma, other: intranasal (drug-soaked pledgets in the nasal cavity), AUCinf, range observed, renally impaired patients): 61.2 to 180 ng·h/mL
Tmax (plasma, other: intranasal (drug-soaked pledgets in the nasal cavity), Tmax, range observed, renally impaired patients): 0.301 to 0.595 h
CL/F (Geometric Least Squares Mean, ANOVA) (normal renal function, single intranasal 160 mg cocaine HCl): 1774 L/h
AUC0→t (Max) [1]: 109.9 ng·h/mL
AUC0→t (Min) [1]: 34.29 ng·h/mL
AUC0→∞ (Max) [1]: 110.3 ng·h/mL
AUC0→∞ (Min) [1]: 37.67 ng·h/mL
Clast (Geometric mean) [1]: 0.209 ng/mL
Clast (Max) [1]: 0.626 ng/mL
Clast (Mean) [1]: 0.263 ng/mL
Clast (Median) [1]: 0.154 ng/mL
Clast (Min) [1]: 0.114 ng/mL
Cmax (Max) [1]: 62.7 ng/mL
Cmax (Min) [1]: 16.7 ng/mL
Tlast (Geometric mean) [1]: 20.6 h
Tlast (Max) [1]: 32.0 h
Tlast (Mean) [1]: 22.5 h
Tlast (Median) [1]: 24.0 h
Tlast (Min) [1]: 720 min
Tmax (Max) [1]: 1.500 h
t1/2 (Max) [1]: 10.67 h
t1/2 (Min) [1]: 124 min
CL/F, percent lower than in normal subjects (renal impairment vs normal renal function): approximately 25%
plasma exposure (geometric mean Cmax, AUC), percent higher than in normal subjects (severe renal impairment vs normal renal function): approximately 33%
AUClast Ratio Impaired/Normal [2]: 134.46%
CL/F Ratio Impaired/Normal [2]: 75.13%
Cmax Ratio Impaired/Normal [2]: 133.28%
AUC0→t (Max) [3]: 221 ng·h/mL
AUC0→t (Min) [3]: 43.0 ng·h/mL
AUC0→∞ (Max) [3]: 227 ng·h/mL
AUC0→∞ (Min) [3]: 44.2 ng·h/mL
Clast (Geometric mean) [3]: 0.159 ng/mL
Clast (Max) [3]: 0.432 ng/mL
Clast (Mean) [3]: 0.186 ng/mL
Clast (Median) [3]: 0.131 ng/mL
Clast (Min) [3]: 0.102 ng/mL
